Data taken from patent US8536192B2, “6,7-unsaturated-7-carbamoyl substituted morphinan derivative” (priority 2005, dated 2013).
pKi: −log10 of the molar value.

How the values were obtained:
opioid μ receptor = opioid μ receptor (Rattus norvegicus (Rat), UniProt P33535); experiment: Binding assay to opioid μ receptor ([3H]-DAMGO, rat cerebrum membrane)
Experimental: (§1) 1) Method of Preparing Membrane Specimen for Binding Assay
(§2) A rat cerebrum (Slc: SD) which had been stored at −80° C. was used. To a cerebrum which had been weighed was added a 20-fold amount of ice-cooled 10 mM Tris-HCl buffer (pH 7.0), the mixture was homogenized (25000 rpm, 30 seconds) with Histocolon (NITI-ON), and centrifuged at 36600×g for 20 minutes. To the resulting pellet was added 15 ml of the same buffer, and the mixture was treated with Histocolon similarly, and centrifuged. This washing work was performed two times. After centrifugation, to the resulting pellet was added 15 mL of a 50 mM Tris-HCl buffer (pH 7.4), this was treated with Histocolon, and this was finally resuspended in a 10-fold amount of the same buffer, which was used as a crude membrane fraction (Life Sci. 48, 111-116, 1991). The prepared membrane specimen was frozen and stored at −80° C., and at a test, the specimen was rapidly thawed, and diluted to about 900 μg/mL with a 50 mM Tris-HCl buffer (pH 7.4) after the centrifugation and Histocolon treatment, and was used in an experiment. For measuring a protein concentration of the membrane specimen, Micro BCA Protein Assay Kit (PIERCE) was used.
2) Method of μ Receptor Binding Assay and Data Analysis
After washing, the filter was transferred to a mini vial for liquid scintillation counter, 5 mL of a scintillator (Cleasol I) was added, and this was allowed to stand overnight, and the radioactivity was measured for 3 minutes with a liquid scintillation counter Tri-Carb 2200CA (PACKARD).

[1] = tested on: carbon powder transport of inhibitory activity by morphine; experiment: Mouse carbon powder transport assay (antagonism of morphine-inhibited small intestine transport); format: in vivo; conditions: sc, 1 h, test compound 3 mg/kg subcutaneously, 15 minutes before morphine 3 mg/kg
Experimental: 1) Preparation of Test Diet (Carbon Powder)
Using a 10 w/v % arabic gum aqueous solution, a 5 w/v % active carbon solution was prepared, which was used as a test diet.
A ddY line male mouse (5 to 6 weeks old) was used. The mouse was fasted from about 20 or more hours before assay initiation, and water was given ad lib.
The test compound was dissolved in a solvent (DMAA/Solutol/5% meglumine=15/15/70).
Morphine hydrochloride was dissolved in a physiological saline. The test compound, the above solvent and morphine were all administered at a liquid amount of 10 mL/kg.
The test compound 3 mg/kg (test compound administration group) or the solvent (solvent administration group) were subcutaneously administered and, after 15 minutes, amount of 3 mg/kg of morphine was administered to all groups. As a control group, the solvent was subcutaneously administered and, after 15 minutes, a physiological saline was administered.
The test diet 10 mL/kg was orally administered at 15 minutes after administration of morphine. At thirty minutes after administration of the test diet (60 minutes after administration of the test substance), all mice were isolated from esophagus to an ileocecal part near a stomach cardia part. A distance from pyloric part of the stomach to an ileocecal part (full length of small intestine) and a distance until a carbon powder reaching front part (carbon powder movement distance) were measured. The antagonistic activity on the carbon powder transport of inhibitory activity by morphine was calculated as MPE (%) using the following equation. Transport rate (%)=(carbon powder movement distance)/full length of small intestine (cm))×100 M.P.E. (%)={(small intestine transport rate (%) of each individual of test compound administration group−average small intestine transport rate (%) of solvent administration group)/(average small intestine transport rate (%) of control group−average small intestine transport rate (%) of solvent administration group)}×100

opioid δ receptor = opioid δ receptor (Rattus norvegicus (Rat), UniProt P33533); experiment: Binding assay of opioid δ receptor ([3H]-DADLE, rat cerebrum membrane)
Experimental: as §1
as §2, with “7.0), and” for “7.0),”, “7.4), and” for “7.4),”, “and” for “and this was”, “an assay,” for “a test,”
2) Method of δ Receptor Binding Assay and Data Analysis
Into a tube was placed 480 μl of a rat cerebrum membrane fraction to which 100 mM choline chloride, 3 mM MnCl2 and 100 nM DAMGO had been added, and this was incubated at 25° C. for 2 hours. […] After washing, the filter was transferred to a mini vial for liquid scintillation counter, 5 mL of a scintillator (Cleasol I) was added, this was allowed to stand overnight, and the radioactivity was measured for 3 minutes with a liquid scintillation counter Tri-Carb 2200CA (PACKARD).

## O=C(Nc1cccc(C(=O)O)c1)C1=C(O)[C@@H]2Oc3c(O)ccc4c3[C@@]23CCN(CC2CC2)[C@H](C4)[C@]3(O)C1 [Compound I-188]
Opioid μ receptor
  pKi: 7.76
[1]
  percent antagonism of morphine-inhibited transport (M.P.E.) at 3 mg/kg: 74.6%
Opioid δ receptor
  pKi: 8.52

## COC(=O)C1(NC(=O)C2=C(O)[C@@H]3Oc4c(O)ccc5c4[C@@]34CCN(CC3CC3)[C@H](C5)[C@]4(O)C2)CCC1 [Compound I-199]
Opioid μ receptor
  pKi: 8.02
[1]
  percent antagonism of morphine-inhibited transport (M.P.E.) at 3 mg/kg: 62.8%
Opioid δ receptor
  pKi: 7.89
